According to ChEMBL document CHEMBL1201862, “PubChem BioAssay data set” (2004):
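Compound exposure: 48 hours, 5 concentrations, 96-well plates. GI50 marks 50% less growth.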 The source made the active and inactive calls. Rule as the data show it: active = GI50 up to about 1.1 µM and inactive = higher.

Legend:
Assay in all cases: growth of human tumour cells (NCI), 48 h
[1] = test system: KM12
[2] = test system: HCT-116
[3] = test system: CAKI-1
[4] = test system: SF-295
[5] = test system: TK-10
[6] = test system: LOX IMVI
[7] = test system: SF-268
[8] = test system: HT-29
[9] = test system: DU-145
[10] = test system: SN12C
[11] = test system: SK-OV-3
[12] = test system: HCT-15
[13] = test system: NCI-H23
[14] = test system: NCI/ADR-RES
[15] = test system: A549
[16] = test system: CCRF-CEM
[17] = test system: SK-MEL-2
[18] = test system: PC-3
[19] = test system: Hs-578T

Structure (SMILES) | GI50 [1] | GI50 [2] | GI50 [3] | GI50 [4] | GI50 [5] | GI50 [6] | GI50 [7] | GI50 [8] | GI50 [9] | GI50 [10] | GI50 [11] | GI50 [12] | GI50 [13] | GI50 [14] | GI50 [15] | GI50 [16] | GI50 [17] | GI50 [18] | GI50 [19]
N#Cc1c2c(c(Nc3cccc(C(F)(F)F)c3)n3c1nc1ccccc13)CCC2 | > 100 µM (inactive) | > 100 µM (inactive) | > 100 µM (inactive) | > 100 µM (inactive) | > 100 µM (inactive) | > 100 µM (inactive) | > 100 µM (inactive) | > 100 µM (inactive) | > 100 µM (inactive) | > 100 µM (inactive) | > 100 µM (inactive) | > 100 µM | > 100 µM (inactive) | > 100 µM (inactive) | – | – | – | – | –
O=C(c1ccccc1)C(c1ccccc1)C1(O)C(=O)Nc2c(Cl)ccc(Cl)c21 (stereo not given) | 18.2 µM (inactive) | 16.3 µM (inactive) | 20.5 µM (inactive) | 16.5 µM (inactive) | 32.6 µM (inactive) | 11.8 µM (inactive) | 21.9 µM (inactive) | 19.9 µM (inactive) | – | 17.9 µM (inactive) | 30.8 µM (inactive) | 18.4 µM | 16.3 µM (inactive) | – | 26.1 µM (inactive) | 12.2 µM (inactive) | 21.2 µM (inactive) | – | –
N#C/C(=C/c1cccc(Oc2ccccc2)c1)c1ccccc1 | > 100 µM (inactive) | > 100 µM (inactive) | > 100 µM (inactive) | 4.95 µM (inactive) | > 100 µM (inactive) | > 100 µM (inactive) | > 100 µM (inactive) | > 100 µM (inactive) | – | > 100 µM (inactive) | > 100 µM (inactive) | > 100 µM | > 100 µM (inactive) | – | > 100 µM (inactive) | > 100 µM (inactive) | 66.5 µM (inactive) | – | –
O=C(Cc1ccccc1)NN1C(=O)C(Cl)C1c1ccc(O)cc1 (stereo not given) | > 100 µM (inactive) | > 100 µM (inactive) | > 100 µM (inactive) | > 100 µM (inactive) | > 100 µM (inactive) | > 100 µM (inactive) | > 100 µM (inactive) | > 100 µM (inactive) | – | > 100 µM (inactive) | > 100 µM (inactive) | > 100 µM | > 100 µM (inactive) | – | > 100 µM (inactive) | > 100 µM (inactive) | > 100 µM (inactive) | – | –
O=C1N(c2ccccc2)C2(c3ccccc3)CC3CCCC13S2 (stereo not given) | 54.8 µM (inactive) | 46.6 µM (inactive) | > 100 µM (inactive) | 86.1 µM (inactive) | 0.249 µM (active) | 53.5 µM (inactive) | 58.1 µM (inactive) | 42.8 µM (inactive) | > 100 µM (inactive) | 96.2 µM (inactive) | > 100 µM (inactive) | 65.3 µM | 50.5 µM (inactive) | 40.8 µM (inactive) | 53 µM (inactive) | 43.3 µM (inactive) | 14.4 µM (inactive) | 21.9 µM (inactive) | 57.9 µM (inactive)
O=C(/C=C/c1ccc(Cl)cc1)c1nc2ccccc2[nH]1 | 1.6 µM (inactive) | 16.7 µM (inactive) | 3.44 µM (inactive) | 22 µM (inactive) | 14.5 µM (inactive) | 15.2 µM (inactive) | 14.2 µM (inactive) | 21.5 µM (inactive) | 12.3 µM (inactive) | 37.2 µM (inactive) | 21.7 µM (inactive) | 17.5 µM | 48.8 µM (inactive) | 42.5 µM (inactive) | 25.4 µM (inactive) | 3.54 µM (inactive) | > 100 µM (inactive) | 19.9 µM (inactive) | 72.1 µM (inactive)
N/C(=N\N=C=C1C(=O)Nc2ccc(F)cc21)NO | 41.4 µM (inactive) | > 100 µM (inactive) | 28 µM (inactive) | > 100 µM (inactive) | > 100 µM (inactive) | > 100 µM (inactive) | > 100 µM (inactive) | > 100 µM (inactive) | – | > 100 µM (inactive) | 59.2 µM (inactive) | > 100 µM | > 100 µM (inactive) | – | > 100 µM (inactive) | 98.2 µM (inactive) | > 100 µM (inactive) | – | –
COc1cc(OCc2nc3cc(C(F)(F)F)ccc3nc2-c2ccccc2)cc(OC)c1OC | > 100 µM (inactive) | 94 µM (inactive) | > 100 µM (inactive) | 47.3 µM (inactive) | 70.3 µM (inactive) | > 100 µM (inactive) | > 100 µM (inactive) | > 100 µM (inactive) | 86.9 µM (inactive) | – | > 100 µM (inactive) | > 100 µM | 87.3 µM (inactive) | 61.2 µM (inactive) | 36.9 µM (inactive) | > 100 µM (inactive) | > 100 µM (inactive) | 98.9 µM (inactive) | 55.6 µM (inactive)
CC(C)(C)OC(=O)NC(CO)c1cccc(OCc2ccccc2)c1 (stereo not given) | > 100 µM (inactive) | > 65.2 µM (inactive) | > 100 µM (inactive) | 63.4 µM (inactive) | > 82.6 µM (inactive) | 49 µM (inactive) | > 100 µM (inactive) | > 100 µM (inactive) | – | > 100 µM (inactive) | > 100 µM (inactive) | > 100 µM | > 65.5 µM (inactive) | – | 42.8 µM (inactive) | 31.7 µM (inactive) | > 100 µM (inactive) | – | –
